Where a name gives a salt, the structure may show the parent alone.
What was measured:
Wistar rats [1] = assay: intracranial self-stimulation; assay type: in vivo, rat
ShA rats = details: 3 mg/kg, ref Baptista et al 2004; cited from earlier work
Wistar rats [2] = assay: food-maintained responding; details: food-restricted rats, 1 h session
Wistar rats [3] = assay: intravenous cocaine self-administration, short; details: for cocaine self-administration (infusions earned, % of baseline): 30 min pretreatment, vs vehicle; for inactive lever presses: cocaine self-administration
Wistar rats [4] = assay: cue-induced reinstatement of food-seeking behavior; details: food-responding rats; 10, 20, 40 mg/kg i.p., between-subjects
[5] = plasma pharmacokinetics after i.p. administration; assay type: in vivo; details: rat, mean ± SD
rat mGluR3 = rat mGluR3 (Rattus norvegicus, UniProt P31422); assay: thallium flux assay, mGluR3 GIRK HEK-293 cells; assay type: cell-based; details: in presence of EC20 glutamate
rat mGluR3, sequence (P31422 23-879): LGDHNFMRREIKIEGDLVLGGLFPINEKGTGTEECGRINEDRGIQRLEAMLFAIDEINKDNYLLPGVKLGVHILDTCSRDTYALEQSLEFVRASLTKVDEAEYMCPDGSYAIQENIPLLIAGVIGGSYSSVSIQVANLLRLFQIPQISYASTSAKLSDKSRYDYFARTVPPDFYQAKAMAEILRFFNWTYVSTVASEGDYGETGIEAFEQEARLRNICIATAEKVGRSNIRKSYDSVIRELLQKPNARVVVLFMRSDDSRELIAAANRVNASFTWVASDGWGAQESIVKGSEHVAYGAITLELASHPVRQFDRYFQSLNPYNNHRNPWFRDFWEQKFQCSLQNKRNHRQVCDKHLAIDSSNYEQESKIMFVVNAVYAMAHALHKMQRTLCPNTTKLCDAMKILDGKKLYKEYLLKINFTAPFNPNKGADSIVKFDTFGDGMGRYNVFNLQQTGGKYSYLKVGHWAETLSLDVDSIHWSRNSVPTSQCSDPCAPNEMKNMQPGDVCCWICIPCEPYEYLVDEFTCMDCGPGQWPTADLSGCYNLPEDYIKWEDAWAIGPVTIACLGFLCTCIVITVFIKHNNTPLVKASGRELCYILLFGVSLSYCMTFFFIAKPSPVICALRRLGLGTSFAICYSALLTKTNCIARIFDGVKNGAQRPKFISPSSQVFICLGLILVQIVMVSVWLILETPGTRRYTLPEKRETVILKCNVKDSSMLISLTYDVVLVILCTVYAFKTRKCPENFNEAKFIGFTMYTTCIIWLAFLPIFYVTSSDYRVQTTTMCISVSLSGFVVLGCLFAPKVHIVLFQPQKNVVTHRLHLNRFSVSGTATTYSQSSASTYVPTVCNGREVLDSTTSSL

[6] = brain and plasma levels 1 h after administration; assay type: in vivo; details: rat, geometric mean (lower – upper limits)
Wistar rats [7] = assay: cue-induced reinstatement of cocaine-seeking behavior

SMILES: COC(=O)[C@H]1[C@@H](OC(=O)c2ccccc2)C[C@@H]2CC[C@H]1N2C [Cocaine, Cocaine hydrochloride, reference compound]
- ICSS reward thresholds (Wistar rats [1]; 10 mg/kg i.p., co-administered with vehicle or 10 mg/kg BINA): significantly lowered ICSS thresholds

SMILES: N[C@@]1(C(=O)O)CO[C@H]2[C@H](C(=O)O)[C@H]21 [LY379268, [−]-2-oxa-4-aminobicyclo[3.1.0]hexane-4,6-dicarboxylate]
- cocaine self-administration (ShA rats): decreased cocaine self-administration
- food-maintained responding (Wistar rats [2]; 6 mg/kg): significantly decreased food responding
- cocaine self-administration (infusions earned, % of baseline) (Wistar rats [3]; LgA rats, 6 h session and first hour, 6 mg/kg): significant decrease in cocaine intake
- cocaine self-administration (infusions earned, % of baseline) (Wistar rats [3]; ShA rats, 1 h session, 3 and 6 mg/kg): significant decrease in cocaine intake
- inactive lever presses (Wistar rats [3]; 0.3, 1, 3, 6 mg/kg): no effect on inactive lever presses

SMILES: Cc1c(OCc2cccc(-c3ccc(C(=O)[O-])cc3)c2)cc2c(c1C)C(=O)C(C1CCCC1)C2.[K+] (centres unmarked) [BINA, potassium 3′-([2-cyclopentyl-6-7-dimethyl-1-oxo-2,3-dihydro-1H-inden-5yloxy]methyl)biphenyll-4-carboxylate]
- cue-induced food seeking (active lever presses) (Wistar rats [4]): no effect on the number of active lever presses
- AUC ([5]; 20 mg/kg i.p.): 31 ± 5.0 h μM/L
- Cmax ([5]; 20 mg/kg i.p.): 9.3 ± 2.7 µM
- Vd ([5]; 20 mg/kg i.p.): 5.9 ± 2.6 L/kg
- AUC ([5]; 40 mg/kg i.p.): 114 ± 42 h μM/L
- Cmax ([5]; 40 mg/kg i.p.): 31 ± 14 µM
- Vd ([5]; 40 mg/kg i.p.): 1.7 ± 0.68 L/kg
- cocaine-induced decrease in ICSS response latencies (Wistar rats [1]; 20 mg/kg i.p. combined with cocaine 10 mg/kg i.p.): reversed the cocaine-induced decrease in response latencies
- ICSS response latencies (Wistar rats [1]; 40 mg/kg i.p. vs vehicle): significantly increased
- cocaine-induced ICSS threshold lowering (Wistar rats [1]; 20 and 40 mg/kg i.p. combined with cocaine 10 mg/kg i.p.): attenuated cocaine-induced threshold lowering
- ICSS reward thresholds (Wistar rats [1]; administered alone, 20 and 40 mg/kg i.p.): significantly elevated reward thresholds
- food-maintained responding (Wistar rats [2]; 10, 20, 40 mg/kg i.p.): no effect on food responding
- potentiation of the glutamate EC20 response (rat mGluR3): inactive
- Brain level (mean) ([6]; 20 mg/kg): 2.78 (0.65 – 6.39) μM
- Plasma level (mean) ([6]; 20 mg/kg): 10.54 (0.79 – 25.48) μM
- Brain level (mean) ([6]; 40 mg/kg): 2.30 (0.62 – 5.54) μM
- Plasma level (mean) ([6]; 40 mg/kg): 7.79 (0.81 – 16.98) μM
- inactive lever presses (Wistar rats [3]; 10, 20, 40 mg/kg i.p.): no effect on inactive lever presses
- active lever presses in reinstatement sessions (Wistar rats [7]; non-reinstated sub-groups of ShA and LgA rats (median split), 10-40 mg/kg i.p.): no effect of BINA treatment
- cue-induced reinstatement of cocaine-seeking behavior (Wistar rats [7]; three ShA rats reinstating by predefined criterion): tended to reduce cue-induced reinstatement
